Experimental data from patent publication US20240009175A9, “TETRAZOLE DERIVATIVES” (Merck Patent GmbH, priority 2020, published 2024).

What was measured:
[1] = target: ACSS2 (Homo sapiens (Human), UniProt Q9NR19); experiment: Cellular assay of 14C acetate incorporation into histones (IC50 ACSS2 cellular histone); format: cell-based; conditions: HCT-15 cells
Method in brief: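 HCT-15 cells preincubated 1 h with compound (0.25% DMSO), then pulsed 3 h with 14C-acetate in full DMEM/10% FBS. Histones acid-extracted (0.2 M HCl, overnight, 4 °C) after Triton lysis in sodium butyrate buffer; incorporated 14C counted by scintillation (CPM) to give IC50.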

[2] = system: CYP3A4; experiment: CYP-induction assay in HepaRG cells, QuantiGene Plex 2.0 (CYP3A4 induction); format: in vitro ADME, human; conditions: 48 hrs; for CYP3A4 (in parentheses: lowest concentration causing at least 2-fold induction): value in parentheses; for CYP3A4 (significant induction above 20% threshold): value outside parentheses
Source text: CYP-Induction Assay in HepaRG Cells with the QuantiGene Plex 2.0 Reagent System (Branched DNA-Assay) from Affymetrix (Thermo Scientific) (CYP3A4 Induction)
The QuantiGene Plex 2.0 assay combines branched DNA (bDNA) signal amplification and multi-analyte profiling beads (xMAP®) technologies to enable the detection and quantitation of multiple RNA targets simultaneously. The xMAP system combines a flow cytometer, fluorescent-dyed microspheres (beads), lasers and digital signal processing to allow multiplexing of up to 100 unique assays within a single sample.
Human HepaRG cells (Thermo Scientific) were thawed and seeded with a density of 0.72E6 cells/ml in a collagen precoated 96-well plate. After an adaption phase of 3 days in first Williams E medium (Gibco+thawing supplement, Thermo Scientific) the medium was changed to second Williams E medium (Gibco+tox supplement, Thermo Scientific). Daily treatment with test substances at 4 concentrations, started between day 3-10 of culturing, was performed with an incubation time of 48 hrs. After 48 hrs the cells were lysed with 100 μl/well (Lysis mixture, Affymetrix diluted 1:2 with Williams E medium, Gibco and addition of 5 μl proteinase K/ml of the mixture, Affymetrix). The QuantiGene Plex 2.0 assay utilizes fluorescent capture beads to trap specific RNA molecules. In order to hybridize and span contiguous sequences of the target RNA, the probe set containing 3 types of synthetic probes (Capture Extenders, Label Extenders, and Blockers) was incubated with samples and beads at 600 rpm at 54° C. for 16-20 h. Signal amplification was mediated by DNA amplification molecules that hybridize to the tails of the label extenders (incubation of the over-night hybridized beads with pre-amplifier and amplifier reagent for 1 h at 50° C. each, washing steps in between). Each amplification unit contains multiple hybridization sites for biotinylated label probes (incubation with label probe reagent for 1 h at 50° C., washing step in between) that bind Streptavidin-conjugated R-Phycoerythrin (SAPE, last incubation step for 30 min at room temp.). After the SAPE incubation, a last washing step with SAPE buffer was performed (120 μl left in wells). The resulting fluorescence signal associated with individual capture beads was detected on a Luminex 200 flow cytometer (parameters: volume 100 μl, timeout 45 sec., DD-gate 5,000-25,000, bead events 50). Signals were reported as median fluorescence intensity (MFI) and were proportional to the number of target RNA molecules present in the sample.
For analysis of results, calculation of mean values of 3 technical replicates as well as the standard deviations (% SD up to 30% acceptable) were carried out. The mean value of the blank was subtracted from the mean value of the sample. As the genes HPRT1 and TFRC are housekeeping genes, they are used to normalize sample mean values [(Sample Mean−Blank)/Housekeeper (Mean−Blank)=normalized value (HPRT1 or TFRC)]. Calculation of the fold-change was performed by dividing normalized sample values by the normalized mean values of the DMSO controls [(Sample Mean−Blank)/Housekeeper (Mean−Blank)=fc; (DMSO Mean−Blank)/Housekeeper (Mean−Blank)].
Experimental data of the compounds shown in Table 1 in the CYP3A4 assay are shown in Table 2 below and given in μM (significant induction above 20% threshold; in parentheses: lowest concentration causing at least 2-fold induction): […]

ACSS2, sequence (Q9NR19 whole entry): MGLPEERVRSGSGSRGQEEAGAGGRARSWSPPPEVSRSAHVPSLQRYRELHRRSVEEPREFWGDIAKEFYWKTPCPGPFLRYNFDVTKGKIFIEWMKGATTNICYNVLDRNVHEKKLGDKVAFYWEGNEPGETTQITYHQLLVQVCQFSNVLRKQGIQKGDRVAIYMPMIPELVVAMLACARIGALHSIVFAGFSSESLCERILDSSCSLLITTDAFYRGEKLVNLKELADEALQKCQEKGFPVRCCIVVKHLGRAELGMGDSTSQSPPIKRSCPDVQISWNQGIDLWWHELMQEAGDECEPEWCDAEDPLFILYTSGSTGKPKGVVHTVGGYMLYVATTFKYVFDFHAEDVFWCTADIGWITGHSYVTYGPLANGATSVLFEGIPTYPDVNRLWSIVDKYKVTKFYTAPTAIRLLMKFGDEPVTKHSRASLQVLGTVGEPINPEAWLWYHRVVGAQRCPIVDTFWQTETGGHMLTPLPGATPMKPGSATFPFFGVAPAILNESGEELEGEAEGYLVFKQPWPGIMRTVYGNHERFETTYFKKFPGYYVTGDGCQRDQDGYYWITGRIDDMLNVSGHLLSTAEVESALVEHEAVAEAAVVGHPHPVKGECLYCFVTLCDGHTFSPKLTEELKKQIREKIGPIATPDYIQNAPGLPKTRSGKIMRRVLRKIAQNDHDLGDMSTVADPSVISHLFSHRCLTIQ

## CCn1c(C(O)(c2ccccc2)c2cccs2)nc2nc(OC)c(-c3nnn[nH]3)cc21 (racemic) [Compound 35, [1-ethyl-5-methoxy-6-(1H-1,2,3,4-tetrazol-5-yl)-1H-imidazo[4,5-b]pyridin-2-yl](phenyl)(thiophen-2-yl)methanol]
[1]
  IC50: 1 to 10 nM

## CCn1c(C(O)(c2ccccc2)c2ncccn2)nc2nc(OC)c(-c3nnn[nH]3)cc21 (racemic) [Compound 37, [1-ethyl-5-methoxy-6-(1H-1,2,3,4-tetrazol-5-yl)-1H-imidazo[4,5-b]pyridin-2-yl](phenyl)(pyrimidin-2-yl)methanol]
[1]
  IC50: 1 to 10 nM

## CCn1c(C(O)(c2ccccc2)c2ccccn2)nc2nc(OC)c(-c3nnn[nH]3)cc21 (racemic) [Compound 50, [1-ethyl-5-methoxy-6-(1H-1,2,3,4-tetrazol-5-yl)-1H-imidazo[4,5-b]pyridin-2-yl](phenyl)(pyridin-2-yl)methanol]
[1]
  IC50: 0.01 to 1 nM

## CCc1c(C(O)(c2ccccc2)c2ccccn2)nc2cc(OC)c(-c3nnn[nH]3)cn12 (single isomer, unassigned) [Compound 11, [3-Ethyl-7-methoxy-6-(1H-tetrazol-5-yl)-imidazo[1,2-a]pyridin-2-yl]-phenyl-pyridin-2-yl-methanol]
[1]
  IC50: 10 to 100 nM

## CCn1c(C(O)(c2ccccc2)c2ccccn2)nc2nc(OC)c(-c3nnn[nH]3)cc21 (single isomer, unassigned) [Compound 40, [1-ethyl-5-methoxy-6-(1H-1,2,3,4-tetrazol-5-yl)-1H-imidazo[4,5-b]pyridin-2-yl](phenyl)(pyridin-2-yl)methanol]
[1]
  IC50: 0.01 to 1 nM
[2]
  CYP3A4 (in parentheses: lowest concentration causing at least 2-fold induction): 5 µM
  CYP3A4 (significant induction above 20% threshold): 6.8 µM

## CCc1c(C(O)(c2ccccc2)c2ccccc2)nc2cc(OC)c(-c3nnn[nH]3)cn12 [Compound 2, [3-Ethyl-7-methoxy-6-(1H-tetrazol-5-yl)-imidazo[1,2-a]pyridin-2-yl]-diphenyl-methanol]
[1]
  IC50: 1 to 10 nM
[2]
  CYP3A4 (in parentheses: lowest concentration causing at least 2-fold induction): 5 µM
  CYP3A4 (significant induction above 20% threshold): 2.3 µM

## CCc1c(C(O)(c2ccccc2)c2ccccc2)nc2cc(F)c(-c3nnn[nH]3)cn12 [Compound 3, [3-Ethyl-7-fluoro-6-(1H-tetrazol-5-yl)-imidazo[1,2-a]pyridin-2-yl]-diphenyl-methanol]
[1]
  IC50: 100 to 10000 nM

## CCc1c(C(O)(c2ccccc2)c2ccccc2)nc2ccc(-c3nnn[nH]3)cn12 [Compound 4, [3-Ethyl-6-(1 H-tetrazol-5-yl)-imidazo[1,2-a]pyridin-2-yl]-diphenyl-methanol]
[1]
  IC50: 100 to 10000 nM
[2]
  CYP3A4 (in parentheses: lowest concentration causing at least 2-fold induction): 50 µM
  CYP3A4 (significant induction above 20% threshold): 2.2 µM

## CCc1c(C(O)(c2ccccc2F)c2ccccc2F)nc2cc(Cl)c(-c3nnn[nH]3)cn12 [Compound 5, [7-Chloro-3-ethyl-6-(1H-tetrazol-5-yl)-imidazo[1,2-a]pyridin-2-yl]-bis-(2-fluoro-phenyl)-methanol]
[1]
  IC50: 100 to 10000 nM

## CCc1c(C(O)(c2ccccc2F)c2ccccc2F)nc2cc(OC)c(-c3nnn[nH]3)cn12 [Compound 6, [3-Ethyl-7-methoxy-6-(1H-tetrazol-5-yl)-imidazo[1,2-a]pyridin-2-yl]-bis-(2-fluoro-phenyl)-methanol]
[1]
  IC50: 1 to 10 nM

## CCc1c(C(O)(c2ccccc2)c2ccccc2)nc2cc(Cl)c(-c3nnn[nH]3)cn12 [Compound 9, [7-Chloro-3-ethyl-6-(1H-tetrazol-5-yl)-imidazo[1,2-a]pyridin-2-yl]-diphenyl-methanol]
[1]
  IC50: 100 to 10000 nM

## CCc1c(C(O)(c2ccccc2F)c2ccccc2F)nn2cc(OC)c(-c3nnn[nH]3)cc12 [Compound 19, [3-Ethyl-6-methoxy-5-(1H-tetrazol-5-yl)-pyrazolo[1,5-a]pyridin-2-yl]-bis-(2-fluoro-phenyl)-methanol]
[1]
  IC50: 10 to 100 nM

## CCc1c(C(O)(c2ccccc2)c2ccccc2)nn2cc(Cl)c(-c3nnn[nH]3)cc12 [Compound 21, [6-Chloro-3-ethyl-5-(1H-tetrazol-5-yl)-pyrazolo[1,5-a]pyridin-2-yl]-diphenyl-methanol]
[1]
  IC50: 10 to 100 nM
[2]
  CYP3A4 (in parentheses: lowest concentration causing at least 2-fold induction): 50 µM
  CYP3A4 (significant induction above 20% threshold): 2.6 µM

## CCc1c(C(O)(c2ccccc2)c2ccccc2)nn2cc(OC)c(-c3nnn[nH]3)cc12 [Compound 22, [3-Ethyl-6-methoxy-5-(1H-tetrazol-5-yl)-pyrazolo[1,5-a]pyridin-2-yl]-diphenyl-methanol]
[1]
  IC50: 1 to 10 nM

## COc1nc2nc(C(O)(c3ccccc3)c3ccccc3)n(CCO)c2cc1-c1nnn[nH]1 [Compound 34, 2-[2-(hydroxy-diphenylmethyl)-5-methoxy-6-(1H-1,2,3,4-tetrazol-5-yl)-1H-imidazo[4,5-b]pyridin-1-yl]ethan-1-ol]
[1]
  IC50: 100 to 10000 nM

## CCn1c(C(O)(c2cccs2)c2cccs2)nc2nc(OC)c(-c3nnn[nH]3)cc21 [Compound 38, [1-ethyl-5-methoxy-6-(1H-1,2,3,4-tetrazol-5-yl)-1H-imidazo[4,5-b]pyridin-2-yl]bis(thiophen-2-yl)methanol]
[1]
  IC50: 100 to 10000 nM

## CCn1c(C(O)(c2ccccc2)c2ccccc2)nc2nc(Cl)c(-c3nnn[nH]3)cc21 [Compound 51, [5-chloro-1-ethyl-6-(1H-1,2,3,4-tetrazol-5-yl)-1H-imidazo[4,5-b]pyridin-2-yl]diphenylmethanol]
[1]
  IC50: 10 to 100 nM
[2]
  CYP3A4 (in parentheses: lowest concentration causing at least 2-fold induction): 50 µM
  CYP3A4 (significant induction above 20% threshold): 3.1 µM

## CCn1c(C(O)(c2ccccc2F)c2ccccc2F)nc2nc(OC)c(-c3nnn[nH]3)cc21 [Compound 57, [1-ethyl-5-methoxy-6-(1H-1,2,3,4-tetrazol-5-yl)-1H-imidazo[4,5-b]pyridin-2-yl]bis(2-fluorophenyl)methanol]
[1]
  IC50: 1 to 10 nM

## CCn1c(C(O)(c2ccccc2)c2ccccc2)nc2nc(OC)c(-c3nnn[nH]3)cc21 [Compound 58, [1-ethyl-5-methoxy-6-(1H-1,2,3,4-tetrazol-5-yl)-1H-imidazo[4,5-b]pyridin-2-yl]diphenylmethanol]
[1]
  IC50: 0.01 to 1 nM
[2]
  CYP3A4 (in parentheses: lowest concentration causing at least 2-fold induction): 50 µM
  CYP3A4 (significant induction above 20% threshold): 3.8 µM

## CCn1c(C(O)(c2ccccc2F)c2ccccc2F)nc2nc(C)c(-c3nnn[nH]3)cc21 [Compound 59, [1-ethyl-5-methyl-6-(1H-1,2,3,4-tetrazol-5-yl)-1H-imidazo[4,5-b]pyridin-2-yl]bis(2-fluorophenyl)methanol]
[1]
  IC50: 100 to 10000 nM
[2]
  CYP3A4 (in parentheses: lowest concentration causing at least 2-fold induction): 5 µM
  CYP3A4 (significant induction above 20% threshold): 13.4 µM

## CCn1c(C(O)(c2ccccc2)c2ccccc2)nc2ncc(-c3nnn[nH]3)cc21 [Compound 60, [1-ethyl-6-(1H-1,2,3,4-tetrazol-5-yl)-1H-imidazo[4,5-b]pyridin-2-yl]diphenylmethanol]
[1]
  IC50: 100 to 10000 nM

## CCn1c(C(O)(c2ccccc2)c2ccccc2)nc2nc(C)c(-c3nnn[nH]3)cc21 [Compound 62, [1-ethyl-5-methyl-6-(1H-1,2,3,4-tetrazol-5-yl)-1H-imidazo[4,5-b]pyridin-2-yl]diphenylmethanol]
[1]
  IC50: 100 to 10000 nM

## CCn1c(C(O)(c2ccccc2)c2ccccc2)nc2ccc(C(=O)NC[C@@H](C)O)cc21 [Reference Compound, 3-Ethyl-2-[hydroxy(diphenyl)methyl]-N-[(2R)-2-hydroxypropyl]benzimidazole-5-carboxamide, reference compound]
[1]
  IC50: 0.01 to 1 nM
[2]
  CYP3A4 (in parentheses: lowest concentration causing at least 2-fold induction): 0.15 µM
  CYP3A4 (significant induction above 20% threshold): 4.1 µM
